# Laboratory results taken from patent US7498023B2, “Blockade of T cell migration into epithelial GVHD target tissues as an approach to achieving anti-tumor effects against lymphohematopoietic malignancies without GVHD” (The General Hospital Corporation, priority 2000, dated 2009).
# Tests used:
# [1] = Cy 50 mg/kg daily x4 with ATG, thymic irradiation, BMT; five subjects
# Description: Intravenous cyclosporine (CYA) was given beginning on day −1 with conversion to p.o. CYA when tolerated. Donor leukocytes (DLI) were given on days +35, (10^7/kg CD3+ cells) and +56 (5×10^7/kg CD3+ cells) if no GVHD was present. Median subject age was 30 (range 20-45) years. All subjects had disease progression during salvage chemotherapy or radiation therapy. […] Chimerism analyses of weekly peripheral blood samples and pre-BMT, day +28, and day +100 bone marrow aspirate samples have been performed by variable number of tandem repeat sequence (VNTR) analysis (HLA matched BMT) or flow cytometry (HLA mismatched BMT).
# [2] = cited from earlier work
structure (smiles),measurement,setting,value
O=P1(N(CCCl)CCCl)NCCCO1 (centres unmarked) [cyclophosphamide],toxicities observed,[1],reversible Cy cardiotoxicity (n=1)
same,subjects developing a diffuse maculopapular rash,[2]; 24-72 hours following cyclophosphamide,10-20%
same,subjects with some hematuria,[2]; at this dose level (50 mg/kg x4),Approximately 50%
same,incidence of hemorrhagic cystitis,"[2]; cyclophosphamide 50 mg/kg on days -6, -5, -4, -3",20%
same,total dose at which fatal cardiac failure due to hemorrhagic necrosis occurs,[2]; total dose (7.6 grams/m^2),≥ 200 mg/kg
